Measurements taken from ChEMBL document CHEMBL5233269, “Anticancer potential of spirocompounds in medicinal chemistry: A pentennial expedition” (Eur J Med Chem, 2021).
Values after ≈ are worked out from the molar mass of the structure shown.

Assays:
A-375 [1] = experiment: Cytotoxicity against human A-375 cells at 100 ug/ml incubated for 24 hrs by MTT assay; type: functional; details: dose 100 µg/ml
A-375 [2] = experiment: Cytotoxicity against human A-375 cells at 10 ug/ml incubated for 24 hrs by MTT assay; type: functional; details: dose 10 µg/ml
MDA-MB-231 [3] = experiment: Cytotoxicity against human MDA-MB-231 cells at 50 ug/ml relative to control; type: functional; details: dose 50 µg/ml
L929 = experiment: Cytotoxicity against mouse L929 cells at 50 ug/ml relative to control; type: toxicity, cell-based; details: at 50 µg/mL
[4] = Anticancer activity against human Panel (56 tumour cell lines) at 10 uM relative to control; type: functional
MCF7 [5] = experiment: Antiproliferative activity against human MCF7 cells assessed as inhibition of cell growth; type: functional, cell-based
A2780 = experiment: Antiproliferative activity against human A2780 cells assessed as inhibition of cell growth; type: functional, cell-based
HT-29 [6] = experiment: Antiproliferative activity against human HT-29 cells assessed as inhibition of cell growth; type: functional, cell-based
PC-3 = experiment: Anticancer activity against human PC-3 cells at 100 uM relative to control; type: functional
LNCaP = experiment: Anticancer activity against human LNCaP cells at 100 uM relative to control; type: functional
HeLa [7] = experiment: Anticancer activity against human HeLa cells assessed as inhibition of cell proliferation; type: functional, cell-based
B16-F10 = experiment: Anticancer activity against mouse B16-F10 cells; type: functional, cell-based
MCF7 [8] = experiment: Antiproliferative activity against human MCF7 cells; type: functional, cell-based
A549 [9] = experiment: Antiproliferative activity against human A549 cells; type: functional, cell-based
[10] = target: Tumour suppressor p53/oncoprotein Mdm2 (Homo sapiens) (UniProt P04637+Q00987); experiment: Inhibition of MDM2/p53 (unknown origin) interaction at 10 uM relative to control; type: protein assay
Sequence of Tumour suppressor p53/oncoprotein Mdm2 (Homo sapiens) (P04637 whole entry, looked up): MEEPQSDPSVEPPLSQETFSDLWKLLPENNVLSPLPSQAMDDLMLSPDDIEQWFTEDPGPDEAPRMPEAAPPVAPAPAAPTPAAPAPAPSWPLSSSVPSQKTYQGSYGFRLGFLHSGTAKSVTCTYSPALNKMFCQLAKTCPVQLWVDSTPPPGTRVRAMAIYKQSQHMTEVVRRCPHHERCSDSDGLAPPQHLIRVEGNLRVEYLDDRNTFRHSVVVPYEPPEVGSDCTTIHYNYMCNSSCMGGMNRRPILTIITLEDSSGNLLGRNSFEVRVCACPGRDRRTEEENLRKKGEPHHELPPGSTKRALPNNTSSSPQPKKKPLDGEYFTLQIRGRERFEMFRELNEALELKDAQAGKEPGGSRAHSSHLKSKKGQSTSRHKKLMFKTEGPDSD
Sequence of Tumour suppressor p53/oncoprotein Mdm2 (Homo sapiens) (Q00987 whole entry, looked up): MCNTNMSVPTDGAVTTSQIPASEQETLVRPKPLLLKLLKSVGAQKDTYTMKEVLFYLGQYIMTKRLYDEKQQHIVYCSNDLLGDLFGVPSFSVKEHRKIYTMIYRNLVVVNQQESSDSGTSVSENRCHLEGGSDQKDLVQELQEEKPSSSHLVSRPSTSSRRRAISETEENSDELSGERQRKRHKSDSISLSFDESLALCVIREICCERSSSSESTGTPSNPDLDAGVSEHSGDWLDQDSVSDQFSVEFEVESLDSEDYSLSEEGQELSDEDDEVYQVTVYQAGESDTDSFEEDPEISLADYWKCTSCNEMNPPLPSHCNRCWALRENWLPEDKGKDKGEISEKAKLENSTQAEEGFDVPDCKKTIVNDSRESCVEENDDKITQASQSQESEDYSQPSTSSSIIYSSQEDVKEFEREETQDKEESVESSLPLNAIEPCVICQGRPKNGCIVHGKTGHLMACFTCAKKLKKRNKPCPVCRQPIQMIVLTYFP

[11] = target: cGMP-specific 3',5'-cyclic phosphodiesterase (Homo sapiens) (UniProt O76074); experiment: Inhibition of PDE5 (unknown origin) at 3 nM relative to control
MCF7 [12] = experiment: Antiproliferative activity against human MCF7 cells assessed as cell growth inhibition; type: functional, cell-based
MDA-MB-231 [13] = experiment: Antiproliferative activity against human MDA-MB-231 cells assessed as cell growth inhibition; type: functional, cell-based
HCT-116 = experiment: Antiproliferative activity against human HCT-116 cells incubated for 72 hrs by MTT assay; type: functional, cell-based; details: HCT-116, 72 h
Jurkat = experiment: Antiproliferative activity against human Jurkat cells incubated for 72 hrs by MTT assay; type: functional, cell-based
MDA-MB-231 [14] = experiment: Antiproliferative activity against human MDA-MB-231 cells incubated for 72 hrs by MTT assay; type: functional, cell-based; details: MDA-MB-231, 72 h
Caco-2 = experiment: Antiproliferative activity against human Caco-2 cells incubated for 72 hrs by MTT assay; type: functional, cell-based; details: Caco-2, 72 h
HeLa [15] = experiment: Antiproliferative activity against human HeLa cells incubated for 72 hrs by MTT assay; type: functional, cell-based
MCF7 [16] = experiment: Antiproliferative activity against human MCF7 cells incubated for 72 hrs by MTT assay; type: functional, cell-based; details: MCF7, 72 h
CCRF-CEM = experiment: Antiproliferative activity against human CEM cells incubated for 72 hrs by MTT assay; type: functional, cell-based
A549 [17] = experiment: Antiproliferative activity against human A549 cells incubated for 72 hrs by MTT assay; type: functional, cell-based; details: A549, 72 h
A549 [18] = experiment: Cytotoxicity against human A549 cells assessed as inhibition of tumor cell proliferation incubated for 72 hrs by MTT assay; type: functional, cell-based; details: A549, 72 h
SMMC-7721 = experiment: Cytotoxicity against human SMMC-7721 cells assessed as inhibition of tumor cell proliferation incubated for 72 hrs by MTT assay; type: functional, cell-based; details: SMMC-7721, 72 h
MGC-803 = experiment: Cytotoxicity against human MGC-803 cells assessed as inhibition of tumor cell proliferation incubated for 72 hrs by MTT assay; type: functional, cell-based; details: MGC-803, 72 h
ECa-109 cell line = experiment: Cytotoxicity against human EC109 cells assessed as inhibition of tumor cell proliferation incubated for 72 hrs by MTT assay; type: functional, cell-based; details: ECa-109, 72 h
MCF7 [19] = experiment: Anticancer activity against human MCF7 cells assessed as reduction in cell viability; type: functional, cell-based
HepG2 [20] = experiment: Anticancer activity against human HepG2 cells assessed as reduction in cell viability; type: functional, cell-based
HFF = experiment: Antiproliferative activity against human HFF cells incubated for 2 days by MTT assay; type: functional, cell-based; details: 48 h
HT-29 [21] = experiment: Antiproliferative activity against human HT-29 cells incubated for 2 days by MTT assay; type: functional, cell-based; details: HT-29, 48 h
HepG2 [22] = experiment: Antiproliferative activity against human HepG2 cells incubated for 2 days by MTT assay; type: functional, cell-based; details: HepG2, 48 h
MCF7 [23] = experiment: Antiproliferative activity against human MCF7 cells incubated for 2 days by MTT assay; type: functional, cell-based; details: MCF7, 48 h
T47D = experiment: Antiproliferative activity against human T47D cells incubated for 2 days by MTT assay; type: functional, cell-based; details: 48 h

CCN1C(=O)C2(c3ccccc31)N(C)CC(n1ccc3ccccc31)C2(C#N)C#N (centres undefined)
Activity (A-375 [1]): 85.69%
Activity (A-375 [2]): 95.86%

CN1CCN(Cc2ccc([N+](=O)[O-])cc2)P12=NP(N1CCCCC1)(N1CCCCC1)=NP(N1CCCCC1)(N1CCCCC1)=N2 (centres undefined)
Activity (MDA-MB-231 [3]): 30%
Activity (L929): 70%

CC(C)(C)OC(=O)N1CCC2(CC1)NC(=O)c1ccccc1N2
inhibition at 10 µM [4]: 100%

O=C1CC2(CCN(S(=O)(=O)c3ccccc3)CC2)Oc2ccccc21
IC50 (MCF7 [5]): 5.62 µM
IC50 (A2780): 0.31 µM
IC50 (HT-29 [6]): 0.47 µM

O=C1CC2(CCN(S(=O)(=O)c3cccc4ccccc34)CC2)Oc2ccccc21
IC50 (MCF7 [5]): 6.02 µM
IC50 (A2780): 0.316 µM
IC50 (HT-29 [6]): 0.69 µM

O=C(/C=C/c1cccc(F)c1)c1ccc(OP2(Oc3ccc(C(=O)/C=C/c4cccc(F)c4)cc3)=NP3(=NP4(=N2)Oc2ccccc2-c2ccccc2O4)Oc2ccccc2-c2ccccc2O3)cc1
Activity (PC-3): 43.71%
Activity (LNCaP): 63.78%

O=C(/C=C/c1ccc(F)cc1)c1ccc(OP2(Oc3ccc(C(=O)/C=C/c4ccc(F)cc4)cc3)=NP3(=NP4(=N2)Oc2ccccc2-c2ccccc2O4)Oc2ccccc2-c2ccccc2O3)cc1
Activity (PC-3): 35.93%
Activity (LNCaP): 57.66%

Cc1cc(Cl)ccc1[C@@H]1N(C)C2(CC13C(=O)N(C)C(=O)N(C)C3=O)C(=O)c1ccccc1C2=O
IC50 (HeLa [7]): 434 µM
IC50 (B16-F10): 8.4 µM

N#CC1=C(N)Oc2c(c(=O)oc3ccccc23)C12C(=O)N(Cc1cccc(Br)c1)c1ccccc12 (centres undefined)
IC50 (MCF7 [8]): 16.2 µM
IC50 (A549 [9]): 29.3 µM

CCOC(=O)C1CN(C(=O)N2CCCCC2)C2(C(=O)Nc3ccccc32)C1c1ccccc1O (centres undefined)
inhibition [10]: 57.7%

CN1C(=O)N(C)C(=O)C2(CC3(C(=O)c4ccccc4C3=O)N(C)[C@H]2c2ccccc2)C1=O
IC50 (HeLa [7]): 4.3 µM
IC50 (B16-F10): 3.5 µM

O=C1NC2(CCCCC2)Nc2ccccc21
inhibition [11]: 100%

O=C1N(C2CCCCC2)C(=O)C2(CC(c3ccccc3O)=NCCO2)N1C1CCCCC1 (centres undefined)
IC50 (MCF7 [12]): 66.3 µM
IC50 (MDA-MB-231 [13]): 97.1 µM

CON1c2ccccc2[C@@]2(CN=C(Nc3cc(C(F)(F)F)cc(C(F)(F)F)c3)S2)[C@H]1Nc1cc(C(F)(F)F)cc(C(F)(F)F)c1
IC50 (HCT-116): 43.9 µM
IC50 (Jurkat): 2 µM
IC50 (MDA-MB-231 [14]): 3.5 µM
IC50 (Caco-2): 19.7 µM
IC50 (HeLa [15]): 2.5 µM
IC50 (MCF7 [16]): 2 µM
IC50 (CCRF-CEM): 1 µM
IC50 (A549 [17]): 2.5 µM

O=C1N(c2ccccc2)C(=O)C2(CC(c3ccccc3O)=NO2)N1C1CCCCC1 (centres undefined)
IC50 (MCF7 [12]): 42.3 µM
IC50 (MDA-MB-231 [13]): 67.9 µM

C[C@]12CC[C@H](O)CC1=CCC1C2CC[C@@]2(C)C1CC[C@@H]2C1=CC2(C(=O)Nc3c(Cl)cccc32)C(C#N)=C(N)N1 (some centres undefined)
IC50 (A549 [18]): 33 µM
IC50 (SMMC-7721): 29.2 µM
IC50 (MGC-803): 17.2 µM
IC50 (ECa-109 cell line): 6.4 µM

N#Cc1c(N)nc2c(c1-c1ccc(Cl)cc1)SC1(CCCCC1)N2c1ccc(N)cc1
IC50 (MCF7 [19]): 30 µg/mL (≈ 67 µM)
IC50 (HepG2 [20]): 14.3 µg/mL (≈ 31.9 µM)

COc1cc(C2=NOC3(Cc4ccccc4C3=O)C2c2ccc(S(C)(=O)=O)cc2)cc(OC)c1OC (centres undefined)
IC50 (HFF): 2.32 µM
IC50 (HT-29 [21]): 69.3 µM
IC50 (HepG2 [22]): 0.086 µM
IC50 (MCF7 [23]): 24.2 µM
IC50 (T47D): 0.07 µM

C[C@]12CC[C@H](O)CC1=CCC1C2CC[C@@]2(C)C1CC[C@@H]2C1=CC2(C(=O)Nc3ccc(F)cc32)C(C#N)=C(N)N1 (some centres undefined)
IC50 (A549 [18]): 21.3 µM
IC50 (SMMC-7721): 10.9 µM
IC50 (MGC-803): 13.8 µM
IC50 (ECa-109 cell line): 2.6 µM

Cc1ccccc1/C=C/C(=O)c1ccc(OP2(Oc3ccc(C(=O)/C=C/c4ccccc4)cc3)=NP3(=NP4(=N2)Oc2ccccc2-c2ccccc2O4)Oc2ccccc2-c2ccccc2O3)cc1 (centres undefined)
Activity (PC-3): 42.36%
Activity (LNCaP): 69.04%

CN1CCN(Cc2ccc([N+](=O)[O-])cc2)P12=NP(N1CCCC1)(N1CCCC1)=NP(N1CCCC1)(N1CCCC1)=N2 (centres undefined)
Activity (MDA-MB-231 [3]): 30%
Activity (L929): 70%
